Measured values published in the supplement of paper PMC10331698.
± gives the standard deviation of the averaged measurements.

Experiments:
Test in all cases: level (log10 ratio to DMSO vehicle control); higher = higher biomarker level / cell amount than vehicle control
[1] = compound: NC(=O)C(F)(F)C(F)(F)C(F)(F)C(F)F; conditions: in DMSO
Method: (§1)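 BioMAP Diversity Plus panel of 12 human primary cell co-culture systems (3C, 4H, LPS, SAg, BT, BF4T, BE3C, CASM3C, HDF3CGF, KF3CT, MyoF, Mphg). Compounds were added 1 h before stimulation and left for 24 h (MyoF 48 h; BT 72 h for soluble read-outs or 6 d for IgG). Biomarkers were read by ELISA, cytotoxicity by SRB, PBMC viability and proliferation by Alamar Blue. Each well value was divided by the mean of 8 DMSO control wells on the same plate and log10 transformed; duplicate blinded samples were tested at 4 concentrations.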

[2] = compound: COC(=O)C(F)(F)C(F)(F)OC(F)(C(F)(F)F)C(F)(F)OC(F)=C(F)F [Methyl perfluoro(3-(1-ethenyloxypropan-2-yloxy)propanoate)]; conditions: in DMSO
Method: as §1

[3] = compound: C=CC(=O)OCC(F)(F)C(F)(F)C(F)(F)COC(=O)C=C [1H,1H,5H,5H-Perfluoro-1,5-pentanediol diacrylate]; conditions: 6700 nM; in DMSO
Method: as §1

[4] = compound: FC(F)(F)C(F)(F)CNCC(F)(F)C(F)(F)F [Bis(1H,1H-perfluoropropyl)amine]; conditions: in DMSO
Method: as §1

[5] = compound: FC(F)(F)C(F)(F)C(F)(F)C(F)(F)C(F)(F)C(F)(F)C(F)(F)I [1-Iodopentadecafluoroheptane]; conditions: in DMSO
Method: as §1

[6] = compound: FC(F)(F)C(F)(F)C(F)(F)CI [Heptafluorobutyl iodide]; conditions: in DMSO
Method: as §1

Test System | level (log10) ([1]; 6700 nM) | level (log10) ([1]; 20000 nM) | level (log10) ([1]; 60000 nM) | level (log10) ([2]; 6700 nM) | level (log10) ([2]; 20000 nM) | level (log10) [3] | level (log10) ([4]; 6700 nM) | level (log10) ([4]; 20000 nM) | level (log10) ([4]; 60000 nM) | level (log10) ([5]; 6700 nM) | level (log10) ([5]; 20000 nM) | level (log10) ([6]; 6700 nM) | level (log10) ([6]; 20000 nM) | level (log10) ([6]; 60000 nM)
LPS:CCL2/MCP-1 | 0.009 ± 0.045 | 0.005 ± 0.042 | 0.03 ± 0.013 | -0.0235 ± 0.00071 | 0.013 ± 0.025 | -0.042 ± 0.014 | -0.0105 ± 0.00071 | -0.006 ± 0.0085 | 0.0015 ± 0.03 | 0.0035 ± 0.00071 | 0.0225 ± 0.0021 | 0.008 ± 0.041 | 0.0035 ± 0.013 | 0.027 ± 0.024
MyoF:CD106/VCAM-1 | -0.0085 ± 0.013 | -0.0205 ± 0.013 | -0.0235 ± 0.013 | -0.03 ± 0.0014 | -0.0365 ± 0.019 | -0.212 ± 0.015 | 0.0045 ± 0.0078 | 0.0065 ± 0.005 | 0.0095 ± 0.0021 | -0.091 ± 0.0057 | -0.448 ± 0.019 | -0.003 ± 0.0085 | -0.018 ± 0.0071 | -0.0055 ± 0.00071
MyoF:CXCL8/IL-8 | -0.0285 ± 0.0092 | -0.0185 ± 0.028 | 0.018 ± 0.054 | 0.083 ± 0.04 | 0.154 ± 0.034 | 0.003 ± 0.014 | -0.024 ± 0.0028 | -0.003 ± 0.018 | 0.019 ± 0.033 | 0.028 ± 0.018 | 0.034 ± 0.038 | -0.0205 ± 0.0035 | -0.0475 ± 0.0092 | -0.0395 ± 0.011
MyoF:Collagen I | -0.0115 ± 0.015 | -0.002 ± 0.02 | 0.006 ± 0.017 | -0.007 ± 0.011 | 0.0095 ± 0.019 | -0.0165 ± 0.0035 | -0.005 ± 0.0057 | -0.014 ± 0.0099 | 0.0035 ± 0.015 | -0.0495 ± 0.0021 | -0.339 ± 0.012 | -0.0015 ± 0.0035 | -0.0195 ± 0.005 | 0.013 ± 0.018
MyoF:Collagen III | 0.003 | 0.0135 ± 0.00071 | -0.0065 ± 0.035 | -0.0145 ± 0.013 | -0.005 ± 0.0071 | -0.027 ± 0.013 | 0.003 ± 0.016 | 0.0025 ± 0.005 | -0.0035 ± 0.0092 | -0.0365 ± 0.005 | -0.311 ± 0.093 | -0.0095 ± 0.019 | -0.033 ± 0.013 | -0.0205 ± 0.033
MyoF:MMP-1 | -0.018 ± 0.038 | -0.034 ± 0.02 | 0.014 ± 0.028 | 0.021 ± 0.035 | 0.111 ± 0.084 | 0.206 ± 0.0028 | -0.0065 ± 0.011 | -0.01 ± 0.021 | 0.0245 ± 0.08 | 0.145 ± 0.045 | 0.547 ± 0.018 | -0.022 ± 0.0099 | -0.0545 ± 0.0078 | -0.0125 ± 0.039
MyoF:PAI-I | -0.0125 ± 0.013 | -0.0125 ± 0.0064 | 0.005 ± 0.018 | 0.0105 ± 0.0035 | 0.0315 ± 0.0078 | -0.0055 ± 0.03 | -0.005 ± 0.011 | 0.007 ± 0.013 | 0.011 ± 0.0014 | -0.013 ± 0.016 | -0.075 | -0.0105 ± 0.0021 | -0.005 ± 0.0028 | 0.007 ± 0.023
MyoF:SRB | -0.006 ± 0.0042 | -0.0175 ± 0.012 | -0.003 | 0.004 ± 0.0042 | 0.018 ± 0.0099 | -0.0205 ± 0.0035 | 0 ± 0.0057 | -0.011 ± 0.0057 | -0.011 ± 0.0042 | -0.0135 ± 0.00071 | -0.131 ± 0.012 | 0.002 ± 0.0028 | -0.0015 ± 0.0021 | 0.0075 ± 0.011
MyoF:alpha-SM Actin | -0.006 ± 0.0057 | 0.0025 ± 0.023 | -0.002 ± 0.033 | -0.023 ± 0.021 | -0.043 ± 0.047 | -0.208 ± 0.024 | 0.0315 ± 0.037 | 0.0225 ± 0.046 | 0.0245 ± 0.043 | -0.115 ± 0.016 | -0.291 ± 0.045 | 0.018 ± 0.0085 | 0.026 ± 0.054 | 0.0225 ± 0.032
MyoF:bFGF | -0.0125 ± 0.005 | -0.008 ± 0.017 | -0.0155 ± 0.005 | 0.016 ± 0.0099 | 0.037 ± 0.021 | 0.0025 ± 0.005 | -0.0065 ± 0.013 | -0.0045 ± 0.005 | 0.013 ± 0.025 | 0.0165 ± 0.016 | -0.0075 ± 0.015 | 0.0115 ± 0.019 | 0.01 ± 0.0028 | 0.0115 ± 0.005
lMphg:CCL2/MCP-1 | 0.004 | -0.0065 ± 0.012 | 0.0255 ± 0.018 | -0.0045 ± 0.0064 | 0.0335 ± 0.044 | -0.048 ± 0.0085 | 0.0015 ± 0.0035 | 0.001 ± 0.013 | -0.02 ± 0.042 | 0.009 ± 0.0085 | 0.018 ± 0.02 | 0.0255 ± 0.00071 | -0.006 ± 0.0028 | 0.0135 ± 0.0021
lMphg:CCL3/MIP-1alpha | -0.039 ± 0.0099 | -0.0295 ± 0.018 | -0.006 ± 0.0028 | 0.032 ± 0.031 | 0.0655 ± 0.026 | -0.008 ± 0.0057 | 0.039 ± 0.016 | 0.002 ± 0.014 | -0.009 ± 0.0085 | 0.0225 ± 0.023 | 0.0175 ± 0.049 | 0.023 ± 0.079 | 0.0315 ± 0.11 | 0.06 ± 0.045
lMphg:CD40 | -0.026 ± 0.027 | -0.011 ± 0.0071 | -0.017 ± 0.0042 | -0.0295 ± 0.0064 | -0.0365 ± 0.028 | -0.0585 ± 0.015 | 0.006 ± 0.0057 | 0.006 ± 0.0028 | -0.0065 ± 0.0092 | -0.0175 ± 0.052 | -0.0365 ± 0.046 | -0.025 ± 0.031 | -0.0065 ± 0.013 | -0.024 ± 0.0057
lMphg:CD62E/E-Selectin | -0.011 ± 0.038 | -0.021 ± 0.076 | -0.037 ± 0.078 | 0.011 ± 0.052 | 0.018 ± 0.027 | -0.0595 ± 0.00071 | 0.0005 ± 0.0035 | -0.0185 ± 0.0078 | 0.002 ± 0.02 | 0.016 ± 0.014 | 0.0355 ± 0.0078 | -0.0065 ± 0.011 | -0.0065 ± 0.005 | 0.0085 ± 0.019
lMphg:CD69 | 0.0265 ± 0.018 | -0.015 ± 0.0071 | -0.0115 ± 0.0078 | -0.067 ± 0.047 | -0.0985 ± 0.07 | -0.0015 ± 0.0078 | -0.017 ± 0.028 | -0.012 ± 0.03 | 0.0045 ± 0.14 | -0.0455 ± 0.043 | -0.079 ± 0.062 | -0.048 ± 0.03 | -0.033 | -0.026 ± 0.025
lMphg:CD106/VCAM-1 | 0 ± 0.013 | 0.006 ± 0.0014 | -0.003 ± 0.017 | -0.008 ± 0.025 | -0.006 ± 0.025 | -0.0615 ± 0.025 | 0.0135 ± 0.011 | 0.0055 ± 0.0092 | 0.0075 ± 0.0035 | -0.0025 ± 0.0064 | -0.007 ± 0.017 | -0.0115 ± 0.005 | -0.022 ± 0.0085 | -0.0175 ± 0.016
lMphg:CXCL8/IL-8 | -0.0235 ± 0.0078 | -0.0225 ± 0.028 | 0.0185 ± 0.047 | 0.135 | 0.211 ± 0.014 | 0.03 ± 0.0099 | 0 ± 0.011 | 0.0075 ± 0.069 | -0.0035 ± 0.053 | -0.018 ± 0.0071 | 0.0165 ± 0.019 | -0.0335 ± 0.028 | -0.0275 ± 0.00071 | -0.0415 ± 0.0078
lMphg:IL-1alpha | -0.0425 ± 0.023 | -0.0465 ± 0.00071 | 0.0365 ± 0.047 | 0.0435 ± 0.035 | 0.118 ± 0.0021 | 0.045 ± 0.024 | -0.025 ± 0.0071 | -0.031 ± 0.0057 | 0.0295 ± 0.059 | 0.03 ± 0.045 | 0.014 ± 0.0085 | 0.029 ± 0.027 | 0.0335 ± 0.03 | 0.0305 ± 0.019
lMphg:SRB-Mphg | 0.0005 ± 0.013 | -0.0045 ± 0.015 | 0.013 ± 0.027 | -0.011 ± 0.0057 | 0.006 ± 0.017 | 0.0135 ± 0.00071 | -0.025 ± 0.03 | -0.058 ± 0.023 | -0.0025 ± 0.037 | 0.005 ± 0.018 | 0.0125 ± 0.011 | -0.0065 ± 0.005 | 0.0055 ± 0.0078 | 0.007 ± 0.031
lMphg:sIL-10 | -0.013 ± 0.023 | -0.0715 ± 0.005 | -0.021 ± 0.047 | -0.0355 ± 0.0035 | -0.102 ± 0.04 | -0.13 ± 0.035 | -0.0755 ± 0.028 | 0.037 ± 0.024 | -0.059 ± 0.034 | 0.004 ± 0.081 | -0.0995 ± 0.021 | -0.0135 ± 0.036 | 0.0085 ± 0.013 | -0.03 ± 0.078
